Test results taken from the supplement of paper PMC10307832.

Experiments:
Assay in all cases: relative viability (nuclei count vs DMSO), 5 days (fraction); higher = more cells survive
201T = tested on: 201T
Summary of the method: (§1)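 Medians of duplicate plates are given as relative viability. That measure is the nuclei count in treated wells divided by the count in vehicle wells. Counts were taken on 4× images of lung cancer cell lines in 1536-well plates, 5 days after pin-tool dosing the day after seeding with one drug alone or a fixed anchor-drug dose plus five library-drug doses (not always all listed) in √10 steps.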

NCI-H2023 = tested on: NCI-H2023
Summary of the method: as §1

NCI-H441 = tested on: NCI-H441
Summary of the method: as §1

NCI-H3122 = tested on: NCI-H3122
Summary of the method: as §1

NCI-H1563 = tested on: NCI-H1563
Summary of the method: as §1

NCI-H322M = tested on: NCI-H322M
Summary of the method: as §1

LOU-NH91 = tested on: LOU-NH91
Summary of the method: as §1

NCI-H1734 = tested on: NCI-H1734
Summary of the method: as §1

NCI-H1650 = tested on: NCI-H1650
Summary of the method: as §1

UMC-11 = tested on: UMC-11
Summary of the method: as §1

COR-L23 = tested on: COR-L23
Summary of the method: as §1

NCI-H520 = tested on: NCI-H520
Summary of the method: as §1

NCI-H2347 = tested on: NCI-H2347
Summary of the method: as §1

H3255 = tested on: H3255
Summary of the method: as §1

NCI-H2405 = tested on: NCI-H2405
Summary of the method: as §1

NCI-H647 = tested on: NCI-H647
Summary of the method: as §1

PC-14 = tested on: PC-14
Summary of the method: as §1

EPLC-272H = tested on: EPLC-272H
Summary of the method: as §1

HCC-15 = tested on: HCC-15
Summary of the method: as §1

## CC(=O)O[C@@]12CO[C@@H]1C[C@H](O)[C@@]1(C)C(=O)[C@H](O)C3=C(C)[C@@H](OC(=O)[C@H](O)[C@@H](NC(=O)OC(C)(C)C)c4ccccc4)C[C@@](O)([C@@H](OC(=O)c4ccccc4)[C@H]21)C3(C)C [Docetaxel] + CC(C)C[C@H](NC(=O)[C@H](Cc1ccccc1)NC(=O)c1cnccn1)B(O)O [Bortezomib] (partner 0.002 µM)
201T; first compound 0.0002 µM
  relative viability: 1.07
201T; first compound 0.000632 µM
  relative viability: 1.1
201T; first compound 0.002 µM
  relative viability: 1.03
201T; first compound 0.006325 µM
  relative viability: 0.624
201T; first compound 0.02 µM
  relative viability: 0.425
NCI-H2023; first compound 0.0002 µM
  relative viability: 0.89
NCI-H2023; first compound 0.000632 µM
  relative viability: 0.456
NCI-H2023; first compound 0.002 µM
  relative viability: 0.134
NCI-H2023; first compound 0.006325 µM
  relative viability: 0.101
NCI-H2023; first compound 0.02 µM
  relative viability: 0.0677
NCI-H441; first compound 0.0002 µM
  relative viability: 0.449
NCI-H441; first compound 0.000632 µM
  relative viability: 0.276
NCI-H441; first compound 0.002 µM
  relative viability: 0.208
NCI-H441; first compound 0.006325 µM
  relative viability: 0.188
NCI-H441; first compound 0.02 µM
  relative viability: 0.179
NCI-H3122; first compound 0.0002 µM
  relative viability: 1.04
NCI-H3122; first compound 0.000632 µM
  relative viability: 0.907
NCI-H3122; first compound 0.002 µM
  relative viability: 0.864
NCI-H3122; first compound 0.006325 µM
  relative viability: 0.368
NCI-H3122; first compound 0.02 µM
  relative viability: 0.227
NCI-H1563; first compound 0.0002 µM
  relative viability: 0.912
NCI-H1563; first compound 0.000632 µM
  relative viability: 1.02
NCI-H1563; first compound 0.002 µM
  relative viability: 0.989
NCI-H1563; first compound 0.006325 µM
  relative viability: 0.741
NCI-H1563; first compound 0.02 µM
  relative viability: 0.582
NCI-H322M; first compound 0.0002 µM
  relative viability: 1.11
NCI-H322M; first compound 0.000632 µM
  relative viability: 1.22
NCI-H322M; first compound 0.002 µM
  relative viability: 1.05
NCI-H322M; first compound 0.006325 µM
  relative viability: 0.602
NCI-H322M; first compound 0.02 µM
  relative viability: 0.469
LOU-NH91; first compound 0.0002 µM
  relative viability: 0.483
LOU-NH91; first compound 0.000632 µM
  relative viability: 0.46
LOU-NH91; first compound 0.002 µM
  relative viability: 0.4
LOU-NH91; first compound 0.006325 µM
  relative viability: 0.337
LOU-NH91; first compound 0.02 µM
  relative viability: 0.345
NCI-H1734; first compound 0.0002 µM
  relative viability: 0.865
NCI-H1734; first compound 0.000632 µM
  relative viability: 0.577
NCI-H1734; first compound 0.002 µM
  relative viability: 0.323
NCI-H1734; first compound 0.006325 µM
  relative viability: 0.325
NCI-H1734; first compound 0.02 µM
  relative viability: 0.222
NCI-H1650; first compound 0.0002 µM
  relative viability: 0.2
NCI-H1650; first compound 0.000632 µM
  relative viability: 0.196
NCI-H1650; first compound 0.002 µM
  relative viability: 0.204
NCI-H1650; first compound 0.006325 µM
  relative viability: 0.181
NCI-H1650; first compound 0.02 µM
  relative viability: 0.201
UMC-11; first compound 0.0002 µM
  relative viability: 0.747
UMC-11; first compound 0.000632 µM
  relative viability: 0.763
UMC-11; first compound 0.002 µM
  relative viability: 0.162
UMC-11; first compound 0.006325 µM
  relative viability: 0.197
UMC-11; first compound 0.02 µM
  relative viability: 0.128
COR-L23; first compound 0.0002 µM
  relative viability: 0.885
COR-L23; first compound 0.000632 µM
  relative viability: 0.915
COR-L23; first compound 0.002 µM
  relative viability: 0.844
COR-L23; first compound 0.02 µM
  relative viability: 0.116
NCI-H520; first compound 0.0002 µM
  relative viability: 0.45
NCI-H520; first compound 0.000632 µM
  relative viability: 0.233
NCI-H520; first compound 0.002 µM
  relative viability: 0.251
NCI-H520; first compound 0.006325 µM
  relative viability: 0.172
NCI-H520; first compound 0.02 µM
  relative viability: 0.108
NCI-H2347; first compound 0.0002 µM
  relative viability: 0.805
NCI-H2347; first compound 0.000632 µM
  relative viability: 0.832
NCI-H2347; first compound 0.002 µM
  relative viability: 0.326
NCI-H2347; first compound 0.006325 µM
  relative viability: 0.497
NCI-H2347; first compound 0.02 µM
  relative viability: 0.575
H3255; first compound 0.0002 µM
  relative viability: 0.864
H3255; first compound 0.000632 µM
  relative viability: 0.497
H3255; first compound 0.002 µM
  relative viability: 0.489
H3255; first compound 0.006325 µM
  relative viability: 0.284
H3255; first compound 0.02 µM
  relative viability: 0.272
NCI-H2405; first compound 0.0002 µM
  relative viability: 0.988
NCI-H2405; first compound 0.000632 µM
  relative viability: 0.956
NCI-H2405; first compound 0.002 µM
  relative viability: 0.681
NCI-H2405; first compound 0.006325 µM
  relative viability: 0.394
NCI-H2405; first compound 0.02 µM
  relative viability: 0.308
NCI-H647; first compound 0.0002 µM
  relative viability: 0.762
NCI-H647; first compound 0.000632 µM
  relative viability: 0.23
NCI-H647; first compound 0.002 µM
  relative viability: 0.113
NCI-H647; first compound 0.006325 µM
  relative viability: 0.123
NCI-H647; first compound 0.02 µM
  relative viability: 0.0811
PC-14; first compound 0.0002 µM
  relative viability: 0.826
PC-14; first compound 0.000632 µM
  relative viability: 0.803
PC-14; first compound 0.002 µM
  relative viability: 0.132
PC-14; first compound 0.006325 µM
  relative viability: 0.103
PC-14; first compound 0.02 µM
  relative viability: 0.0579
EPLC-272H; first compound 0.0002 µM
  relative viability: 0.761
EPLC-272H; first compound 0.000632 µM
  relative viability: 0.506
EPLC-272H; first compound 0.002 µM
  relative viability: 0.209
EPLC-272H; first compound 0.006325 µM
  relative viability: 0.168
EPLC-272H; first compound 0.02 µM
  relative viability: 0.0779
HCC-15; first compound 0.0002 µM
  relative viability: 0.807
HCC-15; first compound 0.000632 µM
  relative viability: 0.78
HCC-15; first compound 0.002 µM
  relative viability: 0.231
HCC-15; first compound 0.006325 µM
  relative viability: 0.216
HCC-15; first compound 0.02 µM
  relative viability: 0.157
